Melting point data for 110 compounds are collected here from a melting point compilation (Tetko et al.).

Structures are written as SMILES.

For orientation: melting point means the temperature of the solid-liquid transition. As to `O=C1NC(=S)NC(=O)C1=Cc1ccc(-c2ccc(Cl)cc2)o1`, the melting point was 280 °C.

The compound `OC(c1ccccc1)(c1ccccc1)[C@H]1CCCN1` had a melting point of 77 to 81 °C.

As for `Clc1ccc(C(c2ccccc2)N2CCNCC2)cc1` (stereo not given), the melting point is 65 to 75 °C.

Compound `Clc1cc2c(oc3c(Cl)cccc32)c(Cl)c1Cl` yielded a melting point of 190 °C.

`CCCCCCCC(=O)c1ccc(NC(C)=O)cc1` yielded a melting point of 123 °C.

`Nc1ccc2c(c1)C(=O)OC21c2ccc(O)cc2Oc2cc(O)ccc21`: the melting point came to 223 °C.

With `O=C1CCCN1c1ccc(C(F)(F)F)cc1`, the melting point was 134 to 136 °C.

On to `CC(=O)Nc1ccc(C2=NNC(=O)CC2)cc1`, for which the melting point is 250 to 253 °C.

As to `O=[N+]([O-])c1ccccc1C(Br)C(Br)c1ccccn1` (stereo not given), the melting point was found to be 182 °C.

As for `NNC(=S)Nc1ccc(Cl)cc1Cl`, the melting point is 169 °C.

In turn, `Brc1n[nH]c(Br)c1Br` yielded a melting point of 190 to 192 °C.

Compound `COc1ccc(/C=C/C=O)cc1` returned a melting point of 55 to 60 °C.

Compound `CSc1nc2nc(C)cc(C)c2c(=O)[nH]1` had a melting point of 242 to 244 °C.

In the case of `Cc1nc2ccc(Br)cn2c(=O)c1C(=O)c1ccccc1`, the melting point lay in the range of 245 to 247 °C.

`COc1cc2c(cc1OC)C(c1cc(Cl)ccc1[N+](=O)[O-])=NCC2` had a melting point of 169 to 170 °C.

For the compound `O=Nc1ccc2c(O)ccc(N=O)c2c1O`, the melting point was determined as 250 °C.

On to `CC1=CC=CC2Cc3ccccc3C(=O)N12` (stereo not given), for which the melting point stood at 98 °C.

`Cc1cncc(C)n1` yielded a melting point of 47.5 °C.

Compound `O=C1c2ccccc2C(=O)c2c1cc(O)c(O)c2O` displayed a melting point of 313 °C.

Regarding `O=[N+]([O-])c1ccc(/C(Cl)=C\c2cccc(/C=C(/Cl)c3ccc([N+](=O)[O-])cc3[N+](=O)[O-])c2)c([N+](=O)[O-])c1`, the melting point amounted to 215 °C.

For the compound `COc1ccc2[nH]c(C)c(CC(=O)O)c2c1`, the melting point fell in the range of 162 to 165 °C.

For the compound `O=[N+]([O-])c1ccc(Oc2ccccc2)cc1`, the melting point stood at 58 °C.

Compound `N#Cc1c(Cl)cccc1Oc1ccc(S(=O)(=O)Cl)cc1` yielded a melting point of 137 to 139 °C.

Compound `CCC(C)CCC(C)(O)CC` (stereo not given) returned a melting point of -67.5 °C.

Compound `N#Cc1c(-c2cccc(O)c2)c(C#N)c(=O)n(N)c1N` came in with a melting point of 323 °C.

For `COc1ccc(C=NC2=NC(C(F)(F)F)N=N2)cc1` (stereo not given), the melting point was 172 °C.

Turning to `CCOC(=O)c1c(C)sc(Sc2ccccc2[N+](=O)[O-])c1OC(C)=O`, the melting point lay in the range of 130 to 131 °C.

`CC(C)[C@@H]1CC[C@H](C)C[C@@H]1OC(=O)c1cccc(C(=O)O)n1`: the melting point came to 120 °C.

`S=C(c1ccc2c(c1)OCO2)N1CCCCC1` registered a melting point of 113 °C.

Turning to `NNc1ncnc2scc(-c3ccccc3)c12`, the melting point was 150 to 152 °C.

The compound `C=C(C)C1CCC(C)CC1O` (stereo not given) showed a melting point of 78 °C.

In turn, `NC1=NCC2c3ccccc3Cc3ccccc3N12` (stereo not given) gave a melting point of 206 °C.

As for `c1ccc2cc3cc4ccccc4cc3cc2c1`, the melting point amounted to 357 °C.

Compound `Cc1ccc(-c2ccc(C)c(C)c2)cc1C` displayed a melting point of 76 °C.

For `FC(F)(F)c1n[nH]c(/N=C/c2ccc(Cl)cc2)n1`, the melting point amounted to 233 °C.

As for `COC(C)COC(C)CO` (stereo not given), the melting point is -83 °C.

As for `O=Cc1ccccc1OC1CCOCC1`, the melting point was 67 to 70 °C.

In the case of `NC(Cc1cccc2ccccc12)=NO`, the melting point was in the range of 127 to 129 °C.

`COc1ccc(-c2nnc3n2NC(c2ccc(N(C)C)cc2)S3)cc1` (stereo not given) showed a melting point of 167 °C.

In turn, `O=[N+]([O-])c1c(Cl)cc(Cl)cc1C(Cl)Cl` came in with a melting point of 45 °C.

`O=C(O)C1=NN(c2ccccc2)C(=O)C1=CC1C(=O)N(c2ccccc2)N=C1C(=O)O` (stereo not given) gave a melting point of 257 to 260 °C.

Compound `C=CC1CN2CCC1CC2c1[nH]c2ccccc2c1CCO` (stereo not given) gave a melting point of 186 °C.

On to `CCC1COC(Cn2cncn2)(c2ccc(Cl)cc2Cl)O1` (stereo not given), for which the melting point worked out at 84 °C.

As for `COC(=O)c1cccc(C=O)c1`, the melting point is 58 °C.

Compound `CCc1cc(C(=O)c2ccc(OC)cc2)c(N)s1` came in with a melting point of 100 to 102 °C.

`O=C1c2ccccc2C(=O)N1Cl` yielded a melting point of 185 to 189 °C.

Compound `COc1c(F)cc(N)cc1Br` yielded a melting point of 72 °C.

Take `OCC1C2C=CC(C2)C1CO` (stereo not given): the melting point was 85 to 85.5 °C.

`C=CC(=O)NC(C)(C)CS(=O)(=O)O` had a melting point of 195 °C.

For the compound `C=C1C(=O)C23C(OC(C)=O)CC4C5(C)CCCC4(C(O)OC5)C2C(OC(C)=O)CC1C3OC(C)=O` (stereo not given), the melting point is 226 °C.

`CC(=O)Nc1ccc(OC(=O)c2ccccc2O)cc1` came in with a melting point of 187 °C.

`ON=C1CCCCCCC1` had a melting point of 37 °C.

Compound `Cc1ccccc1C=Cc1ccccc1C` yielded a melting point of 83 °C.

As for `O=C(O)C1OC(OCC(Cl)(Cl)Cl)C(O)C(O)C1O` (stereo not given), the melting point worked out at 142 °C.

Consider `CC(C)(C)OC(=O)N[C@H](Cc1ccc(F)cc1)C(=O)O`, for which the melting point was 130 °C.

Take `CC(=Cc1ccccc1)C(=O)Cl`: the melting point lay within 45 to 46 °C.

As for `CC(C)(C)SC(C)(C)C`, the melting point is -9 °C.

In the case of `CSC(SC)=C(C#N)C(=O)NCc1ccccc1`, the melting point was determined as 81 °C.

For the compound `Cc1cc(C(=O)NNCc2ccccc2)no1`, the melting point turned out to be 106 °C.

For the compound `O=[N+]([O-])c1cc(-c2ccc(O)cc2)ccc1O`, the melting point amounted to 182 °C.

`Cc1nc(-c2cccc(C#N)c2)cs1` gave a melting point of 112 to 114 °C.

`O=CC(O)C1OC(=O)C(O)C1O` (stereo not given) came in with a melting point of 178 °C.

As to `Cc1ccc(C(=O)Cl)o1`, the melting point stood at 29 °C.

In turn, `C=C(C)CCCCCCCCCCCCCCCC` showed a melting point of 14 °C.

With `CCOC(=O)C(C=Cc1cccc(C=CC(C(=O)OCC)C(=O)OCC)c1)C(=O)OCC`, the melting point lay within 100 to 102 °C.

For `N#CC(=C1CCCC1)c1nc2ccccc2s1`, the melting point was found to be 235 °C.

`CC(=O)OCC(=O)C1CCC2C3CCC4=CC(=O)CCC4(C)C3CCC12C` (stereo not given) had a melting point of 157 °C.

The compound `N#Cc1c(F)cccc1Sc1ccc(Cl)cc1` showed a melting point of 70 °C.

`CCOC(O)=C1C=NC2=C(CNN2C)C1=O` yielded a melting point of 139 °C.

Turning to `O=C(O)CC(CC(=O)O)c1ccc(Cl)cc1`, the melting point amounted to 166 °C.

Compound `O=Cc1cccc(N2CCOCC2)c1` had a melting point of 68 to 70 °C.

In turn, `O=C1NC(=O)C(=Cc2ccc(-c3cccc([N+](=O)[O-])c3)o2)C(=O)N1` displayed a melting point of 280 °C.

The compound `CCCCCCCCCCCC(=O)N1CC(=O)NC(=O)C1` had a melting point of 114 to 116 °C.

With `CC(=O)CCc1oc2c(Br)cc(Br)cc2c1-c1ccc(C)o1`, the melting point was in the range of 107 to 108 °C.

The compound `O=C(O)CCOc1ccc2c(c1)[nH]c1ccccc12` gave a melting point of 184 °C.

In the case of `CC(=O)OC1(C(C)=O)CCC2C3C=C(Cl)C4=CC(=O)CCC4(C)C3CCC21C` (stereo not given), the melting point stood at 213 °C.

As to `O=S(=O)(O)CCNC1CCCCC1`, the melting point came to 320 °C.

Consider `CC(C)(C)N(NC(=O)c1ccccc1)C(=O)c1cccc(Cl)c1`, for which the melting point came to 180 °C.

In turn, `CCOC(=O)C(C)O` (stereo not given) registered a melting point of -26 °C.

For the compound `COc1cc2c(cc1O)C=NCC2`, the melting point was 187 to 191 °C.

Consider `Cc1cc(Br)ccc1C#N`, for which the melting point was 64 °C.

Compound `C1CCC2OCCOCCOC3CCCCC3OCCOCCOC2C1` (stereo not given) had a melting point of 66 to 70 °C.

Compound `Cc1cc(C(=O)O)c(C)n1C` had a melting point of 150 °C.

As to `O=C(OCCOC(=O)C(Cl)(Cl)Cl)C(Cl)(Cl)Cl`, the melting point was 40 °C.

Take `COC(=O)[C@]12c3ccccc3[C@]34c5ccccc5[C@H]1[C@@]32C(=O)O[C@@H]4C`: the melting point came to 203 °C.

As to `O=C1OC(c2ccccc2)Cc2ccccc21` (stereo not given), the melting point lay within 88 to 90 °C.

Consider `N#CCCN1CCN(CCC#N)CC1`, for which the melting point came out at 65 °C.

In turn, `O=C(O)Cc1ccc(O)c([N+](=O)[O-])c1` showed a melting point of 147 °C.

For `O=Cc1csc2ccc(Cl)cc12`, the melting point lay in the range of 109 to 111 °C.

In turn, `C=CC#CC=C` returned a melting point of -88 °C.

Consider `Cn1nnc2cc(CBr)ccc21`, for which the melting point was determined as 120 °C.

In turn, `O=C(O)c1cc([N+](=O)[O-])cnc1O` showed a melting point of 246 °C.

On to `C=CCOCC=C`, for which the melting point was -6 °C.

`FC(Cl)CCl` (stereo not given): the melting point is -60 °C.

Consider `O=C(O)Cc1n[nH]c(=O)c2ccccc12`, for which the melting point was in the range of 220 to 223 °C.

The compound `Cc1n[nH]c(C)c1-c1ccc(-c2ccccc2)cc1` showed a melting point of 221 to 222 °C.

In the case of `O=C1CCC(C(=O)O)=NN1`, the melting point was 199 to 200 °C.

Compound `Nc1ncnc2c1ncn2Cc1c(F)cccc1Cl` showed a melting point of 245 °C.

Turning to `O=C(CCl)Nc1ccccc1Cl`, the melting point is 70 to 73 °C.

Take `O=S(=O)(O)CCCNC1CCCCC1`: the melting point is 324 °C.

`O=C(O)c1ccc(OCC(F)(F)F)nc1` yielded a melting point of 174 °C.

With `COC(=O)C=Cc1cccs1`, the melting point amounted to 49 °C.

As for `Clc1c(Cl)c(Cl)c2c(c1Cl)Oc1c(Cl)c(Cl)c(Cl)c(Cl)c1O2`, the melting point was 330 °C.

`COCC(=O)N(c1c(C)cccc1C)C(C)C(=O)OC` (stereo not given): the melting point was found to be 71 °C.

The compound `CCCCCC=O` showed a melting point of -56 °C.

`Cc1cc(Cc2cc(C)cc(C(C)(C)C)c2O)c(O)c(C(C)(C)C)c1` yielded a melting point of 123 °C.

On to `CC(=O)c1ccc2c(c1)OCCO2`, for which the melting point was 83 °C.

In turn, `CN1C(=O)CN(C(=O)OC(C)(C)C)[C@@H]1C(C)(C)C` had a melting point of 66 to 70 °C.

Consider `CSc1nc(N)c(C(=O)c2ccc([N+](=O)[O-])cc2)s1`, for which the melting point lay within 200 to 202 °C.

`OCCOc1cccc2ccccc12` had a melting point of 45 °C.
